The values below come from patent publication US11209437B2, “Fluorescent probe and preparation method and use thereof” (Fluorescence Diagnosis (shanghai) Biotech Company Ltd., priority 2016, dated 2021).

SMILES strings stand for the structures.

Series [1] in a line: Viscosity responsiveness: fluorescence emission spectra of probes in glycerol and methanol. As to conditions: for Emission wavelength: excited at maximum excitation wavelength of each probe; for Fluorescence ratio in glycerol to methanol: probe 1×10^−5 M. The series is classed as physicochemical. In short, it runs like this: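 Each probe, from a 1×10^−2 M DMSO stock, was diluted to a final 1×10^−5 M in glycerol and in methanol. Fluorescence emission spectra were then recorded under identical conditions at each probe's maximum excitation wavelength.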

Series [2] in a line: Fluorescence of free probe prior to binding to a protein tag. The class given is physicochemical.
Series [3] has as its target T1, SNAP protein tags (Homo sapiens, UniProt P16455, A127T/A154D/C150Q/C62A/E30R/G131K/G132T/G153L/K125A/K32I/L33F/M134L/N157G/Q115S/Q116H/R128A/R135S/S151G/S152D/S159E).
T1 sequence (P16455 1-182 E30R/K32I/L33F/C62A/Q115S/Q116H/K125A/A127T/R128A/G131K/G132T/M134L/R135S/C150Q/S151G/S152D/G153L/A154D/N157G/S159E): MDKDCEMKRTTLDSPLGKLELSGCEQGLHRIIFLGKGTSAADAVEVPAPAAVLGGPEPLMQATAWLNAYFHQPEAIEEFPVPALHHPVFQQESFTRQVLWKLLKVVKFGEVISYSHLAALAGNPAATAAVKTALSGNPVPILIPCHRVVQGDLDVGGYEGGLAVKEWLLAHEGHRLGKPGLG
The experiment in a line: Fluorescence activation of probe after incubation with corresponding protein tag (SNAP). The class given is biochemical. As to conditions: probe 5 μM, protein tag 10 μM, 37° C., 1 hr. In short, it runs like this:
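Probe (5 μM final) mixed with CLIP or SNAP protein tag (10 μM final) and incubated 1 hr at 37° C. Fluorescence intensity change measured by fluorescence spectrophotometer, with quantum yield of tag-bound probe determined.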

For the compound `CN1C(=O)/C(=C\c2nc3ccc(N(C)CCOC(=O)NCc4ccc(COc5nc(N)nc6[nH]cnc56)cc4)cc3o2)N=C1c1ccccc1` [probe 50], in series [1], the Emission wavelength was 612 nm and the “Fluorescence ratio in glycerol to methanol” value (from here on “Fluorescence ratio”) came to 358. Further, in series [2], the “Quantum yield of free probe” value is on record as <0.001. Moreover, in series [3], the Fluorescence activation multiple is given as 416 and the “Quantum yield of probe bound to protein tag” value (“Quantum yield of probe bound” below) worked out at 0.29.

For the compound `CN(CCOC(=O)NCc1ccc(COc2nc(N)nc3[nH]cnc23)cc1)c1ccc2nc(/C=C(\C#N)C(=O)OC(C)(C)C)sc2c1` [probe 51], in series [1], the Emission wavelength was determined as 625 nm and the “Fluorescence ratio” value is 359. Also, in series [2], the “Quantum yield of free probe” value is <0.001. In series [3], the Fluorescence activation multiple was determined as 392 and the “Quantum yield of probe bound” value is recorded as 0.25.

For the compound `CN(CCOC(=O)NCc1ccc(COc2cc(Cl)nc(N)n2)cc1)c1ccc2nc(/C=C(\C#N)C(=O)OC(C)(C)C)sc2c1` [probe 52], in series [1], the Emission wavelength is given as 625 nm and the “Fluorescence ratio” value was 270. Further, in series [2], the “Quantum yield of free probe” value is reported as <0.001. In series [3], the Fluorescence activation multiple is 435 and the “Quantum yield of probe bound” value is given as 0.25.

Regarding `CN(CCOC(=O)NCc1ccc(COc2nc(N)nc3[nH]cnc23)cc1)c1ccc2nc(/C=C(\C#N)c3nc4ccccc4o3)sc2c1` [probe 54], in series [1], the Emission wavelength was found to be 650 nm and the “Fluorescence ratio” value was 391. Also, in series [2], the “Quantum yield of free probe” value was <0.001. Further, in series [3], the Fluorescence activation multiple turned out to be 498 and the “Quantum yield of probe bound” value is 0.17.

With `CN(CCOC(=O)NCc1ccc(COc2nc(N)nc3[nH]cnc23)cc1)c1ccc2nc(/C=C(\C#N)c3nc4ccccc4s3)sc2c1` [probe 55], in series [1], the Emission wavelength was 651 nm and the “Fluorescence ratio” value is on record as 211. The “Quantum yield of free probe” value in series [2] was <0.001. In series [3], the Fluorescence activation multiple stood at 382 and the “Quantum yield of probe bound” value was found to be 0.25.

For `CN(CCOC(=O)NCc1ccc(COc2nc(N)nc3[nH]cnc23)cc1)c1ccc(C#C/C=C(\C#N)c2nc3ccccc3o2)cc1` [probe 58], in series [1], the Emission wavelength stood at 590 nm and the “Fluorescence ratio” value was determined as 419. In addition, in series [2], the “Quantum yield of free probe” value was <0.001. Also, in series [3], the Fluorescence activation multiple is 519 and the “Quantum yield of probe bound” value is 0.27.

As for `CN(CCOC(=O)NCc1ccc(COc2nc(N)nc3[nH]cnc23)cc1)c1ccc(C#C/C=C(\C#N)c2nc3ccccc3s2)cc1` [probe 59], in series [1], the Emission wavelength is listed as 600 nm and the “Fluorescence ratio” value was 370. For the same compound, in series [2], the “Quantum yield of free probe” value is on record as <0.001. For the same compound, in series [3], the Fluorescence activation multiple is listed as 498 and the “Quantum yield of probe bound” value was determined as 0.39.

Turning to `CN(CCOC(=O)NCc1ccc(COc2nc(N)nc3[nH]cnc23)cc1)c1cc2sc3cc(/C=C(\C#N)c4nc5ccccc5o4)sc3c2s1` [probe 61], in series [1], the Emission wavelength turned out to be 620 nm and the “Fluorescence ratio” value was 817. The “Quantum yield of free probe” value in series [2] came out at 0.0012. Besides, in series [3], the Fluorescence activation multiple is on record as 668 and the “Quantum yield of probe bound” value turned out to be 0.77.

For `CN(CCOC(=O)NCc1ccc(COc2nc(N)nc3[nH]cnc23)cc1)c1cc2sc3cc(/C=C(\C#N)c4nc5ccccc5s4)sc3c2s1` [probe 62], in series [1], the Emission wavelength is 640 nm and the “Fluorescence ratio” value came out at 711. In series [2], the “Quantum yield of free probe” value is on record as <0.001. Besides, in series [3], the Fluorescence activation multiple was found to be 592 and the “Quantum yield of probe bound” value is on record as 0.32.

For the compound `CN(CCOC(=O)NCc1ccc(COc2nc(N)nc3[nH]cnc23)cc1)c1ccc2c(c1)sc1cc(C=C(C#N)C#N)sc12` [probe 64], in series [1], the Emission wavelength was 620 nm and the “Fluorescence ratio” value was determined as 632. In series [2], the “Quantum yield of free probe” value is listed as <0.001. In series [3], the Fluorescence activation multiple came out at 519 and the “Quantum yield of probe bound” value turned out to be 0.48.

Take `CN(CCOC(=O)NCc1ccc(COc2nccc(N)n2)cc1)c1ccc2c(c1)sc1cc(/C=C(/C#N)c3nc4ccccc4o3)sc12` [probe 65]: in series [1], the Emission wavelength is 650 nm and the “Fluorescence ratio” value is reported as 391. Further, the “Quantum yield of free probe” value in series [2] was <0.001. For the same compound, in series [3], the Fluorescence activation multiple is given as 798 and the “Quantum yield of probe bound” value is reported as 0.66.

`COCCNC(=O)/C(C#N)=C/c1ccc(-c2ccc(N(C)CCOC(=O)NCc3ccc(COc4nc(N)nc5[nH]cnc45)cc3)cc2)s1` [probe 67]: in series [1], the Emission wavelength is listed as 620 nm and the “Fluorescence ratio” value was determined as 276. For the same compound, the “Quantum yield of free probe” value in series [2] is reported as <0.001. In series [3], the Fluorescence activation multiple is listed as 576 and the “Quantum yield of probe bound” value turned out to be 0.36.

Turning to `COCCNC(=O)/C(C#N)=C/c1ccc(-c2ccc(N(C)CCOC(=O)NCc3ccc(COc4cc(Cl)nc(N)n4)cc3)cc2)s1` [probe 68], in series [1], the Emission wavelength came to 620 nm and the “Fluorescence ratio” value is 381. Besides, the “Quantum yield of free probe” value in series [2] is reported as <0.001. For the same compound, in series [3], the Fluorescence activation multiple turned out to be 681 and the “Quantum yield of probe bound” value turned out to be 0.36.

For the compound `CN(CCOC(=O)NCc1ccc(COc2nc(N)nc3[nH]cnc23)cc1)c1cc2cc3sc(/C=C(\C#N)C(=O)OC(C)(C)C)cc3cc2s1` [probe 70], in series [1], the Emission wavelength is listed as 640 nm and the “Fluorescence ratio” value is listed as 131. Further, the “Quantum yield of free probe” value in series [2] is on record as 0.0026. Besides, in series [3], the Fluorescence activation multiple worked out at 258 and the “Quantum yield of probe bound” value worked out at 0.68.

As for `COCCNC(=O)/C(C#N)=C/c1cc2cc3sc(N(C)CCOC(=O)NCc4ccc(COc5nc(N)nc6[nH]cnc56)cc4)cc3cc2s1` [probe 71], in series [1], the Emission wavelength came out at 640 nm and the “Fluorescence ratio” value amounted to 121. Also, the “Quantum yield of free probe” value in series [2] stood at 0.0028. Moreover, in series [3], the Fluorescence activation multiple was found to be 239 and the “Quantum yield of probe bound” value was found to be 0.67.

As to `CN(CCOC(=O)NCc1ccc(COc2nc(N)nc3[nH]cnc23)cc1)c1cc2c(s1)-c1sc(C=C(C#N)C#N)cc1[Si]2(C)C` [probe 73], in series [1], the Emission wavelength is reported as 680 nm and the “Fluorescence ratio” value amounted to 325. In addition, the “Quantum yield of free probe” value in series [2] is given as 0.0031. Moreover, in series [3], the Fluorescence activation multiple was determined as 248 and the “Quantum yield of probe bound” value was determined as 0.76.

In the case of `CN(CCOC(=O)NCc1ccc(COc2nc(N)nc3[nH]cnc23)cc1)c1cc2c(s1)-c1sc(/C=C(/C#N)C(=O)OC(C)(C)C)cc1[Si]2(C)C` [probe 74], in series [1], the Emission wavelength worked out at 680 nm and the “Fluorescence ratio” value is 297. Further, the “Quantum yield of free probe” value in series [2] is given as 0.0025. Further, in series [3], the Fluorescence activation multiple came out at 311 and the “Quantum yield of probe bound” value is 0.78.

As for `CN(CCOC(=O)NCc1ccc(COc2nc(N)nc3[nH]cnc23)cc1)c1cc2c(s1)-c1sc(/C=C(/C#N)c3nc4ccccc4o3)cc1[Si]2(C)C` [probe 75], in series [1], the Emission wavelength worked out at 700 nm and the “Fluorescence ratio” value worked out at 105. Besides, the “Quantum yield of free probe” value in series [2] is given as 0.0021. Further, in series [3], the Fluorescence activation multiple stood at 211 and the “Quantum yield of probe bound” value is 0.44.

In the case of `COCCNC(=O)/C(C#N)=C/c1ccc(-c2ccc(N(C)CCOC(=O)NCc3ccc(COc4nc(N)nc5[nH]cnc45)cc3)s2)s1` [probe 78], in series [1], the Emission wavelength stood at 672 nm and the “Fluorescence ratio” value came out at 189. In series [2], the “Quantum yield of free probe” value is <0.001. Also, in series [3], the Fluorescence activation multiple amounted to 369 and the “Quantum yield of probe bound” value is listed as 0.28.

Turning to `CN(CCOC(=O)NCc1ccc(COc2nc(N)nc3[nH]cnc23)cc1)c1ccc(-c2ccc(/C=C(\C#N)c3nc4ccccc4s3)s2)s1` [probe 79], in series [1], the Emission wavelength came out at 681 nm and the “Fluorescence ratio” value came out at 298. Moreover, the “Quantum yield of free probe” value in series [2] is given as <0.001. In series [3], the Fluorescence activation multiple worked out at 419 and the “Quantum yield of probe bound” value is recorded as 0.31.

Turning to `CC(C)(C)OC(=O)/C(C#N)=C/c1ccc2c(c1)SCCN2CCOC(=O)NCc1ccc(COc2nc(N)nc3[nH]cnc23)cc1` [probe 83], in series [1], the Emission wavelength is recorded as 515 nm and the “Fluorescence ratio” value turned out to be 103. The “Quantum yield of free probe” value in series [2] is recorded as <0.001. Moreover, in series [3], the Fluorescence activation multiple was found to be 209 and the “Quantum yield of probe bound” value came to 0.18.

In the case of `N#C/C(=C\c1ccc2c(c1)SCCN2CCOC(=O)NCc1ccc(COc2nc(N)nc3[nH]cnc23)cc1)c1nc2ccccc2o1` [probe 85], in series [1], the Emission wavelength is on record as 535 nm and the “Fluorescence ratio” value was 187. For the same compound, the “Quantum yield of free probe” value in series [2] is reported as <0.001. For the same compound, in series [3], the Fluorescence activation multiple is given as 391 and the “Quantum yield of probe bound” value is listed as 0.15.
